According to patent US20240368209A1, “GEMCITABINE ANTICANCER DERIVATIVE AND ANTICANCER PHARMACEUTICAL USE” (ASCENTAWITS PHARMACEUTICALS, LTD., priority 2021, published 2024):

How the values were obtained:
Format in all cases: in vitro ADME
[1] = Metabolic stability in human liver microsomes
Experimental: (§1) Main solutions were prepared according to Table 9 below:
(§2) (II) Two Separate Experiments were Performed • a) With cofactor (NADPH): 25 μL of 10 mM NADPH was added to the culture broth. The final concentration of liver microsomes was 0.5 mg/mL, and the final concentration of NADPH was 1 mM. • b) Without cofactor (NADPH): 25 μL of 100 mM phosphate buffer was added. The final concentration of liver microsomes was 0.5 mg/mL. The mixture was preheated at 37° C. for 10 minutes. (III) 25 μL of […] control compound or test compound solution was added to start the reaction. […] The final concentrations of the test compound and control compound were both 1 μM. The culture broth was cultured in water at 37° C. (IV) Aliquots of 30 μL were collected from the reaction solution at 0.5, 5, 15, 30, and 60 minutes, respectively. 5 volumes of cold acetonitrile and IS (internal standard, containing 100 nM of alprazolam, 200 nM of caffeine, and 100 nM of tolylbutanamide) were added to stop the reaction. […] 100 μL of supernatant was taken and mixed with 100 μL of ultrapure water, equally divided and analyzed with LC-MS/MS.
(§3) All calculations were conducted using Microsoft Excel. The peak area was determined from the extracted ion chromatogram.
(§4) [formula] [formula] [formula] • wherein, QH is the hepatic blood flow (mL/min/kg) in Table 10, and fub is the fraction of drug unbound in plasma, and assumed as 1.

[2] = Metabolic stability in rat liver microsomes
Experimental: as §1, §2, §3, §4

[3] = Metabolic stability in mouse liver microsomes
Experimental: as §1, §2, §3, §4

[4] = Plasma stability in human plasma
Experimental: (§5) The final concentration of organic solvents was 0.5%. The test was conducted in duplicate. • C.
(§6) Samples were analyzed with LC-MS/MS. All calculations were conducted using Microsoft Excel.

[5] = Plasma stability in monkey plasma
Experimental: as §5, §6

[6] = read-out: In vitro half-life t1/2
[7] = read-out: In vitro intrinsic clearance CLint

Compound: CC(C)NP(=O)(OCc1ccc([N+](=O)[O-])c(Oc2ccc(-c3ccc(F)cc3)c(F)c2)c1)OCC1OC(C2N=CC(N)=NC2=O)C(F)(F)C1O (centres unmarked) [Compound H11]
- Hepatic Extraction Ratio (ER) [1]: 0.69
- Predicted Hepatic CLH [1]: 14.41 mL/min/kg
- clearance and stability in liver microsomes (in words) [1]: medium clearances and certain stability
- Remaining percentage (%) ([1]; NADPH added, 0.5 minutes, 1 μM): 100.00%
- Remaining percentage (%) ([1]; NADPH added, 5 minutes): 86.00%
- Remaining percentage (%) ([1]; NADPH added, 15 minutes): 63.82%
- Remaining percentage (%) ([1]; NADPH added, 30 minutes): 43.87%
- Remaining percentage (%) ([1]; NADPH added, 60 minutes): 26.14%
- Remaining percentage (%) ([1]; NADPH not added, 0.5 minutes): 100.00%
- Remaining percentage (%) ([1]; NADPH not added, 60 minutes): 100.86%
- half-life at 1 μM [1, 6]: 31 min
- microsomal CLint at 1 μM [1, 7]: 44.7 µL/min/mg
- CLint scaled at 1 μM ([1]; read-out: Scale-up CLint): 46 mL/min/kg
- Hepatic Extraction Ratio (ER) [2]: 0.71
- Predicted Hepatic CLH [2]: 48.43 mL/min/kg
- clearance and stability in liver microsomes (in words) [2]: medium clearances and certain stability
- Remaining percentage (%) ([2]; NADPH added, 0.5 minutes, 1 μM): 100.00%
- Remaining percentage (%) ([2]; NADPH added, 5 minutes): 85.67%
- Remaining percentage (%) ([2]; NADPH added, 15 minutes): 56.17%
- Remaining percentage (%) ([2]; NADPH added, 30 minutes): 29.55%
- Remaining percentage (%) ([2]; NADPH added, 60 minutes): 13.20%
- Remaining percentage (%) ([2]; NADPH not added, 0.5 minutes): 100.00%
- Remaining percentage (%) ([2]; NADPH not added, 60 minutes): 103.20%
- half-life at 1 μM [2, 6]: 20.1 min
- microsomal CLint at 1 μM [2, 7]: 69 µL/min/mg
- CLint scaled at 1 μM ([2]; read-out: Scale-up CLint): 168 mL/min/kg
- Hepatic Extraction Ratio (ER) [3]: 0.73
- Predicted Hepatic CLH [3]: 65.90 mL/min/kg
- clearance and stability in liver microsomes (in words) [3]: medium clearances and certain stability
- Remaining percentage (%) ([3]; NADPH added, 0.5 minutes, 1 μM): 100.00%
- Remaining percentage (%) ([3]; NADPH added, 5 minutes): 85.55%
- Remaining percentage (%) ([3]; NADPH added, 15 minutes): 55.03%
- Remaining percentage (%) ([3]; NADPH added, 30 minutes): 36.05%
- Remaining percentage (%) ([3]; NADPH added, 60 minutes): 16.85%
- Remaining percentage (%) ([3]; NADPH not added, 0.5 minutes): 100.00%
- Remaining percentage (%) ([3]; NADPH not added, 60 minutes): 93.32%
- half-life at 1 μM [3, 6]: 23.3 min
- microsomal CLint at 1 μM [3, 7]: 59.5 µL/min/mg
- CLint scaled at 1 μM ([3]; read-out: Scale-up CLint): 246 mL/min/kg
- t1/2 (min) [4]: ∞
- Remaining percentage (%) ([4]; 0 min, 5 μM, 37° C.): 100.00%
- plasma stability (in words) ([4]; 37° C., at least 2 hours): stable and has no significant metabolism
- Remaining percentage (%) ([4]; 15 min): 95.74%
- Remaining percentage (%) ([4]; 30 min): 94.17%
- Remaining percentage (%) ([4]; 60 min): 102.77%
- Remaining percentage (%) ([4]; 120 min): 99.46%
- t1/2 (min) [5]: ∞
- Remaining percentage (%) ([5]; 0 min, 5 μM, 37° C.): 100.00%
- plasma stability (in words) ([5]; 37° C., at least 2 hours): stable and has no significant metabolism
- Remaining percentage (%) ([5]; 15 min): 100.61%
- Remaining percentage (%) ([5]; 30 min): 92.99%
- Remaining percentage (%) ([5]; 60 min): 103.66%
- Remaining percentage (%) ([5]; 120 min): 98.48%
